Measurements taken from patent EP0688431B1, “METHOD FOR SCREENING CATALYTIC NON-ENZYME POLYPEPTIDES AND PROTEINS” (YEDA RESEARCH AND DEVELOPMENT CO. LTD., priority 1993, dated 1994).
pKd: −log10 of the molar value.

Target: antibody D2.3
Test: Binding of the product to the catalytic antibody
Set-up: species or system Balb/c mice
Conditions: binding to antibody D2.3

pKd: 4.28
SMILES: O=[N+]([O-])c1ccc(CO)cc1 [p-nitrobenzyl alcohol]
